Assay results as given in US10221162B2, “Triazole agonists of the APJ receptor” (priority 2015, dated 2019).
Read-outs that look alike come from different tables or passages of the source.

How the values were obtained:
human APJ receptor = human APJ receptor (Homo sapiens (Human), UniProt P35414); assay: [35S]GTPγS binding assay (hAPJ SPA); assay type: biochemical
Procedure: The human APJ receptor was cloned by polymerase chain reaction and the gene encoding the receptor was subcloned in pFLAG-CMV™-3 expression vector (Sigma, Saint Louis, Mo. USA) in-house at Amgen. A GTPγS binding assay was performed on membranes prepared from CHO cells stably expressing human APJ receptor. The optimum experimental conditions for the concentrations of GDP, MgCl2, and NaCl in the assay buffer were initially determined. The assay was performed in assay buffer [20 mM HEPES, pH 7.5, 5 mM MgCl2, and 0.1% (w/v) BSA with 200 mM NaCl, 3 μM GDP] and membranes expressing human APJ receptor/well along with WGA PS beads. The reaction was initiated by addition of 0.2 nM [^35S]GTPγS (Perkin Elmer Life and Analytical Sciences, Waltham USA) in the absence or presence of various ligands and incubated at RT for 90 min. […] All the results presented are means of several independent experiments and analyzed by non-linear regression methods using commercially available program Prism (GraphPad, San Diego, Calif.) to obtain EC50 detailed in Table 58.

heart failure rat model = assay: In vivo cardiac contractility in heart failure (MI) rat model; settings: heart failure rats; for MI Rat Model dP/dtmax (%) / cardiac contractility as measured by dP/dt: acute administration for 30 min; for cardiac contractility as measured by dP/dt: result in words
Procedure: Male Lewis rats (Charles River, USA) at 2-3 months of age were used for the study. […] APJ agonists were administered dose dependently acutely for a period of 30 min.
The interaction between […] (ACE2) and Apelin biology is complicated. To investigate the interaction between the Apelin-APJ and ACE signalling pathways, we examined the improvement in cardiac function with APJ small molecule agonists in the presence of ACE inhibitor captopril in heart failure rats in vivo.

[1] = tested on: isolated perfused rat hearts; assay: Ex vivo isolated perfused rat heart (Langendorff) assay; settings: percent change; for Isolated Heart Assay dP/dtmax (%): LV contractility; for Isolated Heart Assay dP/dtmin (%): LV relaxation
[2] = tested on: naive Sprague Dawley rat hearts; assay: Langendorff isolated perfused rat heart (ex vivo contractility and relaxation); settings: Langendorff apparatus, as a function of concentration
[3] = membranes from CHO cells stably expressing human APJ receptor, [35S]GTPγS, read-out: Activity hAPJ SPA EC50 IP

Chain of human APJ receptor (P35414 whole entry): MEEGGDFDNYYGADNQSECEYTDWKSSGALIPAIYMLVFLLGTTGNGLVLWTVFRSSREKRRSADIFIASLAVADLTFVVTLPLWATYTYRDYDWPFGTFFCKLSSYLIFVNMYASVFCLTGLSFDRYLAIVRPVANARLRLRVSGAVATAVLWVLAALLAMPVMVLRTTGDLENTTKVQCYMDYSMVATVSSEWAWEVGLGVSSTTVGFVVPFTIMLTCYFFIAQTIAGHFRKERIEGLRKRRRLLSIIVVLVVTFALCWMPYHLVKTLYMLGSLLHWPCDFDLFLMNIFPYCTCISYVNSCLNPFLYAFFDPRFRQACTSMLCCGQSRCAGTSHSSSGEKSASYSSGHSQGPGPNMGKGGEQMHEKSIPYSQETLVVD

Row | SMILES | Isolated Heart Assay dP/dtmax (%) [1] | Isolated Heart Assay dP/dtmin (%) [1] | also measured
1 | COc1cccc(OC)c1-n1c(NS(=O)(=O)[C@@H](C)[C@H](O)c2ccc(C#N)cc2)nnc1-c1cncc(C)c1.COc1cccc(OC)c1-n1c(NS(=O)(=O)[C@H](C)[C@@H](O)c2ccc(C#N)cc2)nnc1-c1cncc(C)c1 (mixture of isomers) [Example 247.0, (1R,2S)-1-(4-cyanophenyl)-N-(4-(2,6-dimethoxyphenyl)-5-(5-methyl-3-pyridinyl)-4H-1,2,4-triazol-3-yl)-1-hydroxy-2-propanesulfonamide and (1S,2R)-1-(4-cyanophenyl)-N-(4-(2,6-dimethoxyphenyl)-5-(5-methyl-3-pyridinyl)-4H-1,2,4-triazol-3-yl)-1-hydroxy-2-propanesulfonamide] |  |  | EC50 (human APJ receptor): 3.8 nM
2 | COc1cccc(OC)c1-n1c(NS(=O)(=O)[C@H](C)[C@@H](C)c2ncc(Cl)cn2)nnc1-c1cccnc1 (racemic) [Example 694.0, (2R,3S)-3-(5-chloropyrimidin-2-yl)-N-(4-(2,6-dimethoxyphenyl)-5-(pyridin-3-yl)-4H-1,2,4-triazol-3-yl)butane-2-sulfonamide or (2S,3R)-3-(5-chloropyrimidin-2-yl)-N-(4-(2,6-dimethoxyphenyl)-5-(pyridin-3-yl)-4H-1,2,4-triazol-3-yl)butane-2-sulfonamide] | 18.0% | 32.0% | MI Rat Model dP/dtmax (%) (heart failure rat model): 8%
3 | COc1cccc(OC)c1-n1c(NS(=O)(=O)[C@@H](C)[C@H](C)c2ncc(F)cn2)nnc1-c1cccnc1 (single isomer, unassigned) [Example 184.0, (2R,3S)-N-(4-(2,6-dimethoxyphenyl)-5-(3-pyridinyl)-4H-1,2,4-triazol-3-yl)-3-(5-fluoro-2-pyrimidinyl)-2-butanesulfonamide or (2S,3R)-N-(4-(2,6-dimethoxyphenyl)-5-(3-pyridinyl)-4H-1,2,4-triazol-3-yl)-3-(5-fluoro-2-pyrimidinyl)-2-butanesulfonamide] | 14.5% | 14.0% | 
4 | COc1cccc(OC)c1-n1c(NS(=O)(=O)[C@@H](C)[C@H](OC)c2ncc(F)cn2)nnc1-c1cncc(C)c1 (single isomer, unassigned) [Example 242.0] | 5.0% | −2.7% | 
5 | COc1cccc(OC)c1-n1c(NS(=O)(=O)[C@@H](C)[C@H](OC)c2ncc(F)cn2)nnc1-c1cccnc1 (single isomer, unassigned) [Example 244.0] | 14.0% | 15.0% | 
6 | COc1cccc(-c2nnc(NS(=O)(=O)[C@@H](C)[C@H](O)c3ccccc3OC)n2-c2c(OC)cccc2OC)n1 (single isomer, unassigned) [Example 324.0] |  |  | EC50 (human APJ receptor; [3]): 14 nM
7 | COc1cccc(-c2nnc(NS(=O)(=O)[C@@H](C)[C@H](O)c3ccccc3OC)n2-c2c(OC)cccc2OC)n1 (single isomer, unassigned) [Example 325.0] |  |  | EC50 (human APJ receptor; [3]): 170 nM
8 | COc1cccc(-c2nnc(NS(=O)(=O)[C@@H](C)[C@H](O)c3ccccc3OC)n2-c2c(OC)cccc2OC)n1 (single isomer, unassigned) [Example 326.0] |  |  | EC50 (human APJ receptor; [3]): 22 nM
9 | COc1cccc(-c2nnc(NS(=O)(=O)[C@@H](C)[C@H](O)c3ccccc3OC)n2-c2c(OC)cccc2OC)n1 (single isomer, unassigned) [Example 327.0] |  |  | EC50 (human APJ receptor; [3]): 2 nM
10 | COc1cccc(OC)c1-n1c(NS(=O)(=O)[C@H](C)[C@@H](OC)c2ccc(Cl)cn2)nnc1-c1cccnc1 (single isomer, unassigned) [Example 531.0, (1S,2R)-1-(5-chloro-2-pyridinyl)-N-(4-(2,6-dimethoxyphenyl)-5-(3-pyridinyl)-4H-1,2,4-triazol-3-yl)-1-methoxy-2-propanesulfonamide or (1R,2S)-1-(5-chloro-2-pyridinyl)-N-(4-(2,6-dimethoxyphenyl)-5-(3-pyridinyl)-4H-1,2,4-triazol-3-yl)-1-methoxy-2-propanesulfonamide] | 4.1% | 1.9% | 
11 | COc1cccc(OC)c1-n1c(NS(=O)(=O)[C@H](C)[C@@H](OC)c2ncc(Cl)cn2)nnc1-c1cncc(C)c1 (single isomer, unassigned) [Example 557.0] | 17.0% | 20.0% | MI Rat Model dP/dtmax (%) (heart failure rat model): No effect
12 | CCOc1cccc(OC)c1-n1c(NS(=O)(=O)[C@@H](C)[C@H](OC)c2ncc(C)cn2)nnc1-c1cccc(OC)n1 (single isomer, unassigned) [Example 665.0, (1R,2S,P)—N-(4-(2-ethoxy-6-methoxyphenyl)-5-(6-methoxy-2-pyridinyl)-4H-1,2,4-triazol-3-yl)-1-methoxy-1-(5-methyl-2-pyrimidinyl)-2-propanesulfonamide or (1R,2S,M)-N-(4-(2-ethoxy-6-methoxyphenyl)-5-(6-methoxy-2-pyridinyl)-4H-1,2,4-triazol-3-yl)-1-methoxy-1-(5-methyl-2-pyrimidinyl)-2-propanesulfonamide] |  |  | EC50 (human APJ receptor; [3]): 3.9 nM
13 | COc1cnc([C@H](O)[C@@H](C)S(=O)(=O)Nc2nnc(-c3cccnc3)n2-c2c(OC)cccc2OC)cn1 (single isomer, unassigned) [Example 706.0, (1S,2R)-N-(4-(2,6-dimethoxyphenyl)-5-(3-pyridinyl)-4H-1,2,4-triazol-3-yl)-1-hydroxy-1-(5-methoxy-2-pyrazinyl)-2-propanesulfonamide or (1R,2S)-N-(4-(2,6-dimethoxyphenyl)-5-(3-pyridinyl)-4H-1,2,4-triazol-3-yl)-1-hydroxy-1-(5-methoxy-2-pyrazinyl)-2-propanesulfonamide] | 9.1% | 4.0% | 
14 | COc1ncnc(OC)c1-n1c(NS(=O)(=O)[C@@H](C)[C@H](OC)c2ccc(Cl)cn2)nnc1-c1cccnc1 (single isomer, unassigned) [Example 711.0, (1R,2S)-1-(5-chloro-2-pyridinyl)-N-(4-(4,6-dimethoxy-5-pyrimidinyl)-5-(3-pyridinyl)-4H-1,2,4-triazol-3-yl)-1-methoxy-2-propanesulfonamide or (1S,2R)-1-(5-chloro-2-pyridinyl)-N-(4-(4,6-dimethoxy-5-pyrimidinyl)-5-(3-pyridinyl)-4H-1,2,4-triazol-3-yl)-1-methoxy-2-propanesulfonamide] | 9.4% | 1.1% | 
15 | C[C@H](CS)C(=O)N1CCC[C@H]1C(=O)O [Captopril] |  |  | improvement in contractility or ejection fraction (heart failure rat model; captopril alone, acute settings): does not show a marked improvement in contractility or ejection fraction
16 | COc1cccc(-c2nnc(NS(=O)(=O)[C@@H](C)[C@H](OC)c3ncc(C)cn3)n2-c2c(OC)cccc2OC)n1 [Example 27.0, (1R,2S)—N-(4-(2,6-dimethoxyphenyl)-5-(6-methoxypyridin-2-yl)-4H-1,2,4-triazol-3-yl)-1-methoxy-1-(5-methylpyrimidin-2-yl)propane-2-sulfonamide] |  |  | cardiac contractility as measured by dP/dt (heart failure rat model): increase in cardiac contractility
17 | COc1cccc(OC)c1-n1c(NS(=O)(=O)[C@@H](C)[C@H](O)c2ncc(C)cn2)nnc1-c1cccc(C)n1 [Example 99.0, (1R,2S)-N-(4-(2,6-dimethoxyphenyl)-5-(6-methylpyridin-2-yl)-4H-1,2,4-triazol-3-yl)-1-hydroxy-1-(5-methylpyrimidin-2-yl)propane-2-sulfonamide] |  |  | left ventricular dP/dtmax (load independent cardiac contractility) [2]: increases load independent cardiac contractility; left ventricular dP/dtmin (load independent cardiac relaxation) [2]: increases load independent cardiac relaxation; cardiac contractility as measured by dP/dt (heart failure rat model): increase in cardiac contractility
18 | CCO[C@H](c1ncc(C)cn1)[C@H](C)S(=O)(=O)Nc1nnc(-c2cccnc2)n1-c1c(OC)cccc1OC [Example 109.0, (1R,2S)-N-(4-(2,6-dimethoxyphenyl)-5-(pyridin-3-yl)-4H-1,2,4-triazol-3-yl)-1-ethoxy-1-(5-methylpyrimidin-2-yl)propane-2-sulfonamide] |  |  | cardiac contractility as measured by dP/dt (heart failure rat model): increase in cardiac contractility
19 | COc1cccc(OC)c1-n1c(NS(=O)(=O)[C@@H](C)[C@H](O)c2ncc(C)cn2)nnc1-c1cncc(C)c1 [Example 371.0, (1R,2S)—N-(4-(2,6-dimethoxyphenyl)-5-(5-methylpyridin-3-yl)-4H-1,2,4-triazol-3-yl)-1-hydroxy-1-(5-methylpyrimidin-2-yl)propane-2-sulfonamide] |  |  | cardiac contractility as measured by dP/dt (heart failure rat model): increase in cardiac contractility
20 | COc1cccc(OC)c1-n1c(NS(=O)(=O)[C@@H](C)[C@H](C)c2ncc(C)cn2)nnc1-c1cccnc1 [Example 586.0, (2S,3R)—N-(4-(2,6-dimethoxyphenyl)-5-(3-pyridinyl)-4H-1,2,4-triazol-3-yl)-3-(5-methyl-2-pyrimidinyl)-2-butanesulfonamide] |  |  | cardiac contractility as measured by dP/dt (heart failure rat model): increase in cardiac contractility
